Article PMC10850913 (Heliyon, 2024)
Like-named read-outs stand apart in the source and are kept apart here.

Key:
[1] = cited from earlier work
[2] = In vitro drug release (dialysis tube) and kinetic models; format: physicochemical; details: PBS pH 5.5, 37 °C
Protocol: We utilized a dialysis tube diffusion system to characterize the in vitro release of drugs from the formulations. This system provides a controlled environment to study the rate and extent of drug release from the formulations, reflecting their potential drug delivery behaviour. […] Tube was inserted into 50 mL of PBS (pH 5.5) with both ends tightened. In order to provide the sink conditions, PBS quantifying to 0.5 mL was added. Formulated medium was heated up to 37 ± 0.5 °C and stirred continuously at speed of 200 rpm. At predefined intervals, a 5 mL sample was taken, and an equal volume of new medium was introduced to keep the final volume, or sink condition, throughout experiment. All test samples were analyzed in triplicate manner and results are expressed as mean ± SD (n = 3).
To elucidate the kinetics and mechanisms governing drug release, we employed regression analysis to fit the experimental drug release data to various mathematical models. This analysis yielded coefficient constants that shed light on the order of release and the underlying mechanisms involved. (See Supportive Information for further details).

Tissue distribution = format: in vivo; details: male, albino Wistar, rat, intravenous, 15 mg/kg, rats, 8 h after administration
Protocol: To assess the distribution and concentration of a medication within the body following delivery, tissue distribution studies were conducted. Twelve male albino Wistar rats were divided into two groups, each comprising six rats, following the approved institutional protocol by the Committee for the Purpose of Control and Supervision of Experiments on Animals (CPCSEA) (Ref. No.: SPTM/2022/IAEC/18).
The medications evaluated for tissue distribution were ENZ and the formulation ENZ-PLGA-PSAR-TPGS NPs. After administering the doses for 8 h, the rats were euthanized. Tissue samples, including liver, heart, kidney, lungs, brain, colon, small intestine, stomach, and rectum muscle tissues, were collected. Brain endothelial cells were obtained using a stereotaxic apparatus (USA, Model No. 51500). The collected tissue samples were homogenized in a cold physiological solution and filtered after rinsing with saline water (0.9 percent sodium chloride).
Subsequently, the samples were analyzed using RP-UHPLC (Dionex Ultimate, 3000) to determine the distribution and concentration of the medications in various tissues.

erythrocytes = test: Haemolysis study; format: cell-based, male albino rats; details: rat erythrocytes, 100 μg/ml
Protocol: For […] control identification, Triton X-100 treatment was employed. A 4 mL blood sample was drawn from male albino rats (220g) using a 23-gauge needle from the lateral saphenous vein of the animal (SPTM/2022/IAEC/18). The blood sample was then centrifuged at 1344×g for 10 min, and the plasma layer was carefully removed. The erythrocytes were washed three times with saline water and incubated with a 100 μg/mL concentration of the samples at 37 °C. Samples of 200 μL each were collected at 0, 1–10 h and centrifuged at 1344×g for 10 min.
During the incubation, hemoglobin transformed into oxyhemoglobin. The obtained erythrocytes were observed under a microscope, and absorbance readings were taken at 570 nm for different concentrations of samples. All test samples were analyzed in triplicate, and the results are expressed as mean ± SD (n = 3). The percentage of hemolysis can be calculated using the following equation.

HCT116 cells [3] = test: Cellular apoptosis (Annexin V FITC/PI flow cytometry); format: cell-based; details: HCT116, IC50 dose
Protocol: HCT116 cell lines were seeded, cultured and subjected up to IC-50 dose of compound. Subsequent to treatment, cells underwent two washes with cold PBS. Resuspended cells were placed in 1X binding buffer at a concentration of 1x10^6 cells/ml, and the cells were divided into distinct groups, namely Unstained cells, Control group, Annexin only, PI only, and Treatment. Following the division into labelled tubes, Annexin V FITC and PI were introduced to their respective tubes. After vortexing and an incubation period of 15 min at room temperature, 1X Binding buffer was added to each tube. Subsequently, the samples were analyzed by a Flow Cytometer within 1 h.

platelets = test: Platelet aggregation study; format: cell-based, rats; details: blood incubated 2 h, Leishman-stained slides
Protocol: A 1 mL blood sample was collected in heparinized tubes to prevent coagulation. […] The platelet aggregation was then examined both quantitatively and qualitatively. The qualitative analysis was conducted through microscopic examination of stained blood smears. Blood smears were prepared on clean glass slides after the 2-h incubation period. The slides were air-dried and subsequently stained with Leishman's stain for 5 min (Span Diagnostics, India). Following the staining, the slides were rinsed with distilled water, and a cover glass was placed on each slide for visualization under an optical microscope using an immersion objective. Images were captured using a digital camera.
As a control, whole blood incubated with an equivalent volume of PBS was used as the spontaneous control.

HT-29 cell line = test system: HT-29 cell line; parameters: method as in PMID 31149165; details: 1000 μg/mL, MTT assay; cited from earlier work
HCT116 cells [4] = test: Mitochondrial membrane potential estimation (JC-1 flow cytometry); format: cell-based; details: HCT-116, IC50 dose, 24 h
Protocol: After the incubation period, the medium was aspirated, and cells were harvested using trypsin EDTA. The harvested cells were collected in a 1.5 ml tube and subjected to a single wash with 500 μl of chilled PBS. Subsequently, the cell pellets were resuspended in 400 μl of JC1 staining buffer containing 2 μM JC-1 dye. The samples were then promptly acquired using a Flow Cytometer within a 1-h timeframe.

HCT116 cells [5] = test: Wound healing (scratch) assay; format: cell-based; details: HCT-116, after 48 h, compared to control
Protocol: The following day, a scratch was made in the cell monolayer using a 200 μl tip, and the cells were subsequently treated with the specified concentration of the formulation. Photographs were taken at various time intervals ranging from 0 to 48 h.
The gap area resulting from the scratch was analyzed using Image J Software (NCBI) and was further presented in a graphical format to illustrate the changes over time.

HCT116 cells [6] = test: Cell cycle analysis (PI, flow cytometry); format: cell-based; details: HCT116, IC50 concentration, 24 h
Protocol: Following the incubation period, cells were harvested using trypsin and collected in a 1.5 ml tube. After a single wash with 500 μl of chilled PBS, approximately 1 x 10^6 cells were suspended in 100 μl of PBS. The cell suspension was gently vortexed to achieve a mono-dispersed cell suspension with minimal aggregation. Subsequently, the cells were fixed by transferring this suspension with a pipette into centrifuge tubes containing 900 μl of 70 % ethanol, placed on ice, and then incubated for a minimum of 2 h at 4 °C. The fixed cells could be stored in 70 % ethanol at 4 °C for several weeks.
After fixation, the cells were centrifuged, and the pellet was suspended in 500 μl of Propidium Iodide (PI) staining solution (0.1 % (v/v) Triton X-100, 10 μg/ml PI, and 100 μg/ml DNase-free RNaseA in PBS). This suspension was kept in the dark at room temperature for 30 min or at 37 °C for 10 min. The samples were then acquired on a flow cytometer.

[7] = Pharmacokinetics after intravenous administration; format: in vivo, male Albino Wistar rats; details: rats, 15 mg/kg intravenously
Protocol: In accordance with the ethical approval (SPTM/2022/IAEC/18), nine male Albino Wistar rats weighing between 200 and 250 g were divided into three groups (n = 3) for proper conduct of pharmacokinetic experiments.
Blood samples (500 μL) were collected from the rats' tail veins into heparinized tubes and cold centrifuged at 13,500 rpm for 10 min at 4 °C to separate plasma from blood. Subsequently, 100 μL of the separated plasma was mixed with 200 μL of acetonitrile, vortexed for 3 min to extract proteins, and cold centrifuged again at 13,500 rpm for 5 min at 4 °C.
The supernatant was then diluted with methanol, passed through a membrane filter, and subjected to analysis using a High-Performance Liquid Chromatography (HPLC) system. Isocratic elution was performed with a mobile phase consisting of a 20 mM ammonium acetate buffer and acetonitrile in a 60:40 ratio, at a flow rate of 1.0 mL/min, utilizing a C18 column.

[8] = test system: castration-resistant prostate cancer (CRPC); details: patients with CRPC; cited from earlier work
[9] = male, Albino Wistar, rat, plasma, iv

pattern of release [2]: poor | concentration at 8 h (Tissue distribution; brain, read-out: Concentration in Brain): 0.7 ± 0.1 ng/mL | concentration at 8 h (Tissue distribution; colon, read-out: Concentration in Colon): 0.95 ± 0.5 ng/mL | concentration at 8 h (Tissue distribution; heart, read-out: Concentration in Heart): 0.8 ± 1.1 ng/mL | concentration at 8 h (Tissue distribution; kidney, read-out: Concentration in Kidney): 0.57 ± 0.21 ng/mL | concentration at 8 h (Tissue distribution; liver, read-out: Concentration in Liver): 1.2 ± 0.13 ng/mL | concentration at 8 h (Tissue distribution; lungs, read-out: Concentration in Lungs): 0.5 ± 0.102 ng/mL | concentration at 8 h (Tissue distribution; rectum, read-out: Concentration in Rectum): 3.07 ± 0.4 ng/mL | concentration at 8 h (Tissue distribution; spleen, read-out: Concentration in Spleen): 0.3 ± 0.1 ng/mL | concentration at 8 h (Tissue distribution; stomach, read-out: Concentration in Stomach): 0.21 ± 0.12 ng/mL | platelet aggregation (platelets): no aggregation | MRT [7, 9]: 5.34 ± 2.43 h | Vd [7, 9]: 1.4 ± 0.00356 L | clearance [7, 9]: 1.51 mL/min | C [7]: 226.24 ± 31.2 ng/mL
Compound: CNC(=O)c1ccc(N2C(=S)N(c3ccc(C#N)c(C(F)(F)F)c3)C(=O)C2(C)C)cc1F [ENZ, Enzalutamide]
pKa [1]: 4.16 | lysis of RBCs (microscopy) (erythrocytes): no occurrence of eruption or lysis of the RBCs | early apoptosis (lower right quadrant) (HCT116 cells [3]): 2.7% | late apoptosis (upper right quadrant) (HCT116 cells [3]): 10.1% | live cells (lower left quadrant) (HCT116 cells [3]): 72.6% | cell viability (HT-29 cell line): significant decrease | High MMP cells (HCT116 cells [4]): 3.5% | live cells in MMP assay (HCT116 cells [4]): 52.7% | low MMP cells (HCT116 cells [4]): 41.7% | inhibition of wound area (HCT116 cells [5]): inhibited the wound area | cells in G1 phase (HCT116 cells [6]): 49.6% | cells in G2 (G2/M) phase (HCT116 cells [6]): 14.5% | extension of survival [8]: 4.8 months
